Results as given in patent publication EP0768085A1, “ANTIBACTERIAL AGENT” (DAIICHI PHARMACEUTICAL CO., LTD., priority 1994, dated 1996).
≈ marks a conversion by molar mass, not a printed value. Each block holds one compound with its values, some of them ahead of it.

How the values were obtained:
Type in all cases: cell-based
[1] = tested on: Pasteurella multocida (Kobe-6); experiment: Antibacterial activity (IC), broth microplate as in Example 4 (Example 6, Table 41); conditions: 18 h, origin pig
Protocol: (§1) A suitable amount of a sample was dissolved in dimethylsulfoxide (DMSO), and the resultant solution was diluted with the same amount of sterilized distilled water to prepare a bulk sample of 1,000 µg/ml. Mueller-Hinton broth (product of DIFCO) was dispensed into each well of 96-well microplate. Thereafter, the bulk specimen was added to the first well of a row, and successively diluted (10-fold each time) with sterilized distilled water. Separately, a bacterial cell suspension for the test (Staphylococcus aureus 209-P) which had been cultured in the above-mentioned broth overnight at 37°C was inoculated to each well so that the final inoculation amount of 10^6 CFU/ml was attained. The final concentrations of the samples were 100, 10, and 1 µg/ml.
(§2) The antibacterial action was evaluated by the inhibitory concentration (hereinafter abbreviated as IC) at which propagation of the bacteria cultured at 37°C for 18 hours was inhibited. Inhibition was determined by the turbidity of the medium. The expressions "IC≤100", "≤10", and "≤1" indicate that MIC-equivalent values obtained at the succesive […] dilution of the sample are 100-10 µg/ml, 10-1 µg/ml, and not more than 1 µg/ml, respectively. […] (In the subsequent Examples, the same rule applies correspondingly.) Table 39
In a manner similar to that described in Example 4, antibacterial activity of the invention compound was determined. The bacterium used for the test was Pasteurella Kobe-6 (origin: pig; Pasteurella multocida).

[2] = tested on: Staphylococcus aureus TI-1; experiment: Antibacterial activity (IC), broth microplate as in Example 4 (Example 5, Table 40); conditions: TI1, 18 h
Protocol: as §1, §2
In a manner similar to that described in Example 4, antibacterial activity of the invention compound was determined. The bacterium used for the test was Staphylococcus aureus TI-1.

[3] = tested on: Staphylococcus aureus 209-P; experiment: Antibacterial activity (IC), Mueller-Hinton broth, 96-well microplate (Example 4, Table 39); conditions: 37°C, 18 hours
Protocol: as §1, §2

[4] = tested on: Bordetella bronchiseptica (SM2-4); experiment: Antibacterial activity (IC), broth microplate as in Example 4 (Example 7, Table 42); conditions: 18 h
Protocol: as §1, §2
In a manner similar to that described in Example 4, antibacterial activity of the invention compound was determined. The bacterium used for the test was Bordetella bronchiseptica (SM2-4).

[5] = tested on: Staphylococcus aureus (209-P); experiment: Antibacterial activity (IC), agar as in Example 8 (Example 15, Table 48); conditions: 18 h
Protocol: as §2
(§3) A suitable amount of a sample was dissolved in dimethylsulfoxide (DMSO), after which the resulting solution was diluted with the same amount of sterilized distilled water to prepare a bulk sample of 1,000 µg/ml. Separately, a bacterial liquid for the test (methicillin-resistant Staphylococcus aureus (MRSA) isolated from humans) which had been cultured in Mueller-Hinton broth (product of DIFCO) was prepared and inoculated to a Mueller-Hinton agar (product of DIFCO) containing the sample so that the final inoculation amount of 10^6 CFU/ml was achieved. The final concentrations of the samples were 100, 10, and 1 µg/ml.
(§4) After culturing at 37°C for 18 hours, the antibacterial activity was evaluated in terms of IC in a manner similar to that described in Example 4.
The bacterium used for the test was Staphylococcus aureus (209-P).

[6] = tested on: methicillin-resistant Staphylococcus aureus (MRSA) from humans; experiment: Antibacterial activity (IC), agar as in Example 8 (Example 19, Table 52); conditions: 18 h
Protocol: as §2, §3, §4
In a manner similar to that described in Example 8, antibacterial activity of a variety of ketonitrile derivatives shown in Table 52 was measured. The bacterium used for the test was methicillin-resistant Staphylococcus aureus (MRSA) from humans.

[7] = tested on: Streptococcus aureus (TI-1); experiment: Antibacterial activity (IC), agar as in Example 8 (Example 16, Table 49); conditions: 18 h
Protocol: as §2, §3, §4
In a manner similar to that described in Example 8, antibacterial activity of the invention compound was determined. The bacterium used for the test was […] aureus (TI-1).

Enterococcus from fish = experiment: Antibacterial activity (IC), agar as in Example 8, media with 1.5% NaCl, 25°C (Example 20, Tables 53-55)
Protocol: as §2, §3, §4
(§5) In a manner similar to that described in Example 8, antibacterial activity of a variety of ketonitrile derivatives shown in Tables 53-55 was measured. The bacteria used for the test were Enterococcus and Pasteurella from fish. The culture conditions were such that the media contained 1.5% NaCl, and the culture temperature was 25°C.

Pasteurella from fish = experiment: as above
Protocol: as §2, §3, §4, §5

[8] = tested on: Pasteurella multocida (Kobe-6); experiment: Antibacterial activity (IC), agar as in Example 8 (Example 17, Table 50); conditions: 18 h, origin pig
Protocol: as §2, §3, §4
In a manner similar to that described in Example 8, antibacterial activity of the invention compound was determined. The bacterium used for the test was Pasteurella Kobe-6 (origin: pig, Pasteurella multocida).

MIC [1]: 10 to 100 µg/mL (≈ 20.2 to 202 µM)
MIC [2]: 1 to 10 µg/mL (≈ 2.02 to 20.2 µM)
MIC [3]: 1 to 10 µg/mL (≈ 2.02 to 20.2 µM)
Compound: CC(Oc1ccc(Oc2ccc(C(F)(F)F)cn2)cc1)C(=O)C(C#N)c1ccc(Cl)cc1Cl (centres unmarked) [Compound No. 1]

MIC [4]: 10 to 100 µg/mL (≈ 18.9 to 189 µM)
MIC [1]: 10 to 100 µg/mL (≈ 18.9 to 189 µM)
MIC [2]: 1 to 10 µg/mL (≈ 1.89 to 18.9 µM)
MIC [3]: 10 to 100 µg/mL (≈ 18.9 to 189 µM)
Compound: CC(Oc1ccc(Oc2ncc(C(F)(F)F)cc2Cl)cc1)C(=O)C(C#N)c1ccc(Cl)cc1Cl (centres unmarked) [Compound No. 2, 4-[4-(3-chloro-5-trifluoromethyl-2-pyridyloxy)phenoxy]-2-(2,4-dichlorophenyl)-3-oxopentanonitrile]

MIC [1]: 10 to 100 µg/mL (≈ 20.2 to 202 µM)
MIC [2]: 1 to 10 µg/mL (≈ 2.02 to 20.2 µM)
MIC [3]: 1 to 10 µg/mL (≈ 2.02 to 20.2 µM)
Compound: CC(Oc1ccc(Oc2ncc(C(F)(F)F)cc2Cl)cc1)C(=O)C(C#N)c1cccc(Cl)c1 (centres unmarked) [Compound No. 10]

MIC [1]: 10 to 100 µg/mL (≈ 18.4 to 184 µM)
MIC [2]: 1 to 10 µg/mL (≈ 1.84 to 18.4 µM)
MIC [3]: 1 to 10 µg/mL (≈ 1.84 to 18.4 µM)
Compound: CCC(Oc1ccc(Oc2ncc(C(F)(F)F)cc2Cl)cc1)C(=O)C(C#N)c1ccc(Cl)cc1Cl (centres unmarked) [Compound No. 15]

Compound: CC(Oc1cccc(Oc2ccc(Br)cc2F)c1)C(=O)C(C#N)c1cccc(Br)c1 (centres unmarked) [Compound No. 111, 4-[3-(4-bromo-2-fluorophenoxy)phenoxy]-2-(3-bromophenyl)-3-oxopentanonitrile]
MIC [5]: 1 to 10 µg/mL (≈ 1.88 to 18.8 µM)
MIC ([6]; MRSA strain 891179): 1 to 10 µg/mL (≈ 1.88 to 18.8 µM)
MIC ([6]; MRSA strain 891185): 1 to 10 µg/mL (≈ 1.88 to 18.8 µM)
MIC ([6]; MRSA strain 891187): 1 to 10 µg/mL (≈ 1.88 to 18.8 µM)
MIC ([6]; MRSA strain 891192): 1 to 10 µg/mL (≈ 1.88 to 18.8 µM)
MIC ([6]; MRSA strain 900048): 1 to 10 µg/mL (≈ 1.88 to 18.8 µM)
MIC ([6]; MRSA strain 900056): 1 to 10 µg/mL (≈ 1.88 to 18.8 µM)
MIC [7]: 1 to 10 µg/mL (≈ 1.88 to 18.8 µM)
IC (Enterococcus from fish; Enterococcus Seriolicida HI): ≤10 (10-1 µg/ml)
IC (Enterococcus from fish; Enterococcus Seriolicida KG86050): ≤10 (10-1 µg/ml)
IC (Enterococcus from fish; Enterococcus Seriolicida MS89060): ≤10 (10-1 µg/ml)
IC (Enterococcus from fish; Enterococcus Seriolicida MS89064): ≤10 (10-1 µg/ml)
IC (Enterococcus from fish; Enterococcus Seriolicida MS89066): ≤10 (10-1 µg/ml)
IC (Enterococcus from fish; Enterococcus Seriolicida MS89068): ≤10 (10-1 µg/ml)
IC (Enterococcus from fish; Enterococcus Seriolicida SE94-001): ≤10 (10-1 µg/ml)
MIC (Enterococcus from fish; Enterococcus Seriolicida SE94-002): 1 to 10 µg/mL (≈ 1.88 to 18.8 µM)
IC (Enterococcus from fish; Enterococcus Seriolicida SE94-003): ≤10 (10-1 µg/ml)
IC (Enterococcus from fish; Enterococcus Seriolicida SE94-004): ≤10 (10-1 µg/ml)
IC (Enterococcus from fish; Enterococcus Seriolicida SE94-005): ≤10 (10-1 µg/ml)
MIC (Pasteurella from fish; Pasteurella piscicida KP94-02): 10 to 100 µg/mL (≈ 18.8 to 188 µM)
IC (Pasteurella from fish; Pasteurella piscicida KP94-04): ≤100 (MIC-equivalent values obtained at the succesive 2-fold dilution of the sample are 100-10 µg/ml)
IC (Pasteurella from fish; Pasteurella piscicida KP94-05): ≤100 (MIC-equivalent values obtained at the succesive 2-fold dilution of the sample are 100-10 µg/ml)
IC (Pasteurella from fish; Pasteurella piscicida KP94-06): ≤100 (MIC-equivalent values obtained at the succesive 2-fold dilution of the sample are 100-10 µg/ml)
MIC [8]: 10 to 100 µg/mL (≈ 18.8 to 188 µM)

MIC [4]: 10 to 100 µg/mL (≈ 19.4 to 194 µM)
Compound: N#CC(C(=O)COc1ccc(Oc2ncc(C(F)(F)F)cc2Cl)cc1)c1ccc(Cl)cc1Cl (centres unmarked) [compound 9]

MIC [4]: 10 to 100 µg/mL (≈ 19.6 to 196 µM)
MIC [2]: 10 to 100 µg/mL (≈ 19.6 to 196 µM)
MIC [3]: 10 to 100 µg/mL (≈ 19.6 to 196 µM)
Compound: CC(Oc1ccc(Oc2ncc(C(F)(F)F)cc2Cl)cc1)C(=O)C(C#N)c1cccc2ccccc12 (centres unmarked) [compound 14]
